A short description of data set [1]: logP by HPLC on reversed-phase column (C18), acidic range. The data set is classed as physicochemical. The following applies: formic acid in water/acetonitrile. How it is done:
The logP values were determined according to EEC Directive 79/831 Annex V.A8 by HPLC (high-performance liquid chromatography) on a reversed-phase column (C18) using the following methods:
Calibration was carried out using a homologous series of straight-chain alkan-2-ones (having 3 to 16 carbon atoms) with known logP values. The values between successive alkanones are determined by linear regression.

For data set [2], the system named is adult cat fleas (Ctenocephalides felis). The data set is described as follows: Ctenocephalides felis in vitro contact test with adult cat fleas. The data set is classed as in vivo. The following applies: application rate 5 μg/cm^2 (=500 g/ha), after 48 h, dead or moribund fleas. How it is done: For the coating of the test tubes, 9 mg of active compound are first dissolved in 1 ml of acetone p.a. and then diluted to the desired concentration with acetone p.a. 250 μl of the solution are distributed homogeneously on the inner walls and the base of a 25 ml glass tube by turning and rocking on an orbital shaker (rocking rotation at 30 rpm for 2 h). With 900 ppm of active compound solution and internal surface area 44.7 cm^2, given homogeneous distribution, an area-based dose of 5 μg/cm^2 is achieved.
After the solvent has evaporated off, the tubes are populated with 5-10 adult cat fleas (Ctenocephalides felis), sealed with a perforated plastic lid and incubated in a horizontal position at room temperature and ambient humidity. After 48 h, efficacy is determined. To this end, the tubes are stood upright and the fleas are knocked to the base of the tube. Fleas which remain motionless at the base or move in an uncoordinated manner are considered to be dead or moribund.
100% efficacy means that all the fleas were dead or moribund. 0% efficacy means that no fleas were harmed.

Data set [3] has the same test system. The data set is described as follows: Ctenocephalides felis oral test. In kind it is in vivo. The following applies: 48 h, read-out: efficacy (kill). The method, then: (§1) Solvent: dimethyl sulfoxide
To produce a suitable active compound formulation, 10 mg of active compound are mixed with 0.5 ml of dimethyl sulfoxide. Dilution with citrated cattle blood gives the desired concentration.
About 20 unfed adult cat fleas (Ctenocephalides felis) are placed into a chamber which is closed at the top and bottom with gauze. A metal cylinder whose bottom end is closed with parafilm is placed onto the chamber. The cylinder contains the blood/active compound formulation, which can be imbibed by the fleas through the parafilm membrane.
After 2 days, the kill in % is determined. 100% means that all of the fleas have been killed; 0% means that none of the fleas have been killed.

Data set [4] relates to green peach aphid (Myzus persicae). The data set is described as follows: Myzus persicae spray test. The data set is classed as in vivo. Conditions: foliar, 120 h, read-out: efficacy. How it is done:
Solvent: 78 parts by weight of acetone • • 1.5 parts by weight of dimethylformamide
(§2) Emulsifier: alkylaryl polyglycol ether
(§3) To produce a suitable active compound formulation, 1 part by weight of active compound is dissolved with the specified parts by weight of solvent and made up to the desired concentration with water containing an emulsifier concentration of 1000 ppm. To produce further test concentrations, the formulation is diluted with emulsifier-containing water.
Discs of Chinese cabbage leaves (Brassica pekinensis) infested by all stages of the green peach aphid (Myzus persicae) are sprayed with an active compound formulation of the desired concentration.
(§4) After 5 days, the efficacy in % is determined. 100% means that all the aphids have been killed; 0% means that no aphids have been killed.

Data set [5] deals with green peach aphids (Myzus persicae). The data set is described as follows: Myzus persicae oral test. Conditions: 120 h, read-out: efficacy. The data set is classed as in vivo. The method, then: Solvent: 100 parts by weight of acetone
To produce a suitable active compound formulation, 1 part by weight of active compound is dissolved with the stated parts by weight of solvent and made up to the desired concentration with water.
50 μl of the active compound formulation are transferred into microtitre plates and made up to a final volume of 200 μl with 150 μl of IPL41 insect medium (33%+15% sugar). Subsequently, the plates are sealed with parafilm, which a mixed population of green peach aphids (Myzus persicae) within a second microtitre plate is able to puncture and imbibe the solution.
as §4

The test system of data set [6] is caterpillars of the fall armyworm (Spodoptera frugiperda). The data set is described as follows: Spodoptera frugiperda spray test. The data set is classed as in vivo. The following applies: foliar, 168 h, read-out: efficacy. How it is done: (§5) Solvent: 78.0 parts by weight of acetone • • 1.5 parts by weight of dimethylformamide
as §2, §3
Leaf discs of maize (Zea mays) are sprayed with an active compound formulation of the desired concentration and, after drying, populated with caterpillars of the fall armyworm (Spodoptera frugiperda).
After 7 days, the efficacy in % is determined. 100% means that all the caterpillars have been killed; 0% means that no caterpillar has been killed.

Data set [7] concerns L1 larvae of the Australian sheep blowfly (Lucilia cuprina). The data set is described as follows: Lucilia cuprina test. In kind it is in vivo. The following applies: 48 h, read-out: efficacy (kill). The method, then: as §1
To produce a suitable active compound formulation, 10 mg of active compound are mixed with 0.5 ml of dimethyl sulfoxide, and the concentrate is diluted with water to the desired concentration.
About 20 L1 larvae of the Australian sheep blowfly (Lucilia cuprina) are transferred into a test vessel containing minced horsemeat and the active compound formulation of the desired concentration.
After 2 days, the kill in % is determined. 100% means that all the larvae have been killed; 0% means that no larvae have been killed.

The test system of data set [8] is larvae of the mustard beetle (Phaedon cochleariae). The data set is described as follows: Phaedon cochleariae spray test. The data set is classed as in vivo. The following applies: foliar, 168 h, read-out: efficacy. The method, then: as §5, §2, §3
Discs of Chinese cabbage leaves (Brassica pekinensis) are sprayed with an active compound formulation of the desired concentration and, after drying, populated with larvae of the mustard beetle (Phaedon cochleariae).
After 7 days, the efficacy in % is determined. 100% means that all the beetle larvae have been killed; 0% means that no beetle larvae have been killed.

[9] abbreviates: reversed-phase HPLC column (C18).
Where [10] appears, read: 100 ppm in citrated cattle blood, after 2 days.
[11] abbreviates: 100 g/ha, after 5 days, Chinese cabbage leaf discs.
Setting [12] is: 100 g/ha, after 7 days, Chinese cabbage leaf discs.
Where [13] appears, read: 100 g/ha, after 7 days, maize leaf discs.

Molecules are shown by their SMILES. Read-outs that look alike come from different tables or passages of the source.

A word on the chromatographic logP: it is a lipophilicity value derived from retention on a column. Read a low chromatographic logP as lower lipophilicity. As for `CCS(=O)(=O)c1c(-c2nc3cc(C(F)(F)F)cnc3n2C)nc2cc(Br)ccn12` [2-[7-Bromo-3-(ethylsulfonyl)imidazo[1,2-a]pyridin-2-yl]-3-methyl-6-(trifluoromethyl)-3H-imidazo[4,5-b]pyridine], the chromatographic logP in data set [1] (setting [9]) worked out at 3.3.
The compound `CCS(=O)(=O)c1c(-c2nc3cc(C(F)(F)F)cnc3n2C)nc2cc(N)ccn12` [3-(Ethylsulfonyl)-2-[3-methyl-6-(trifluoromethyl)-3H-imidazo[4,5-b]pyridin-2-yl]imidazo[1,2-a]pyridine-7-amine] had a chromatographic logP in data set [1] (setting [9]) of 2.13.
As to `CCS(=O)(=O)c1c(C(=O)O)nc2cc(Br)ccn12` [7-Bromo-3-(ethylsulfonyeimidazo[1,2-a]pyridine-2-carboxylic acid], in data set [1] (setting [9]), the chromatographic logP was 1.52.
In data set [1] (setting [9]), `CCOC(=O)c1nc2cc(Br)ccn2c1SCC` [Ethyl 7-bromo-3-(ethylsulfanyl)imidazo[1,2-a]pyridine-2-carboxylate] gave a chromatographic logP of 2.76.
Turning to `CCOC(=O)c1nc2cc(Br)ccn2c1S(=O)(=O)CC` [Ethyl 7-bromo-3-(ethylsulfonyl)imidazo[1,2-a]pyridine-2-carboxylate], in data set [1] (setting [9]), the chromatographic logP is 2.22.
In data set [2], `CCS(=O)(=O)c1c(-c2nc3cc(C(F)(F)F)cnc3n2C)nc2cc(NC(=O)OC3CCC3)ccn12` [Example I-02] showed an efficacy of 100%. In addition, the pest or weed control at 100 ppm in data set [3] (setting [10]) and in data set [7] was 100% in each case. Also, the values for the pest or weed control at 100 g/ha in data set [4] (in Brassica rapa), in data set [6] (in Zea mays) and in data set [8] (in Brassica rapa) were 70%, 83% and 67%, respectively. For the same compound, the pest or weed control at 4 ppm in data set [5] turned out to be 100%.
As to `CCS(=O)(=O)c1c(-c2nc3cc(C(F)(F)F)cnc3n2C)nc2cc(NC(=O)NC3CC3)ccn12` [Example I-03], the pest or weed control at 100 ppm in data set [3] (setting [10]) came out at 100%; in data set [7] (100 ppm, after 2 days) it was 100%. Also, the pest or weed control at 100 g/ha in data set [4] (setting [11]) and in data set [8] (setting [12]) was 100% in each case. In data set [5] (4 ppm, after 5 days), the pest or weed control at 4 ppm is 100%.
`CCS(=O)(=O)c1c(-c2nc3cc(C(F)(F)F)cnc3n2C)nc2cc(NC(=O)OCC3CC3)ccn12` [Example I-04]: the pest or weed control at 100 ppm in data set [3] (setting [10]) and in data set [7] was 100% throughout. Moreover, the pest or weed control at 100 g/ha in data set [6] (in Zea mays) and in data set [8] (in Brassica rapa) was 100% in each case.
`CCS(=O)(=O)c1c(-c2nc3cc(C(F)(F)F)cnc3n2C)nc2cc(NC(=S)OCC3CC3)ccn12` [Example I-06, O-(Cyclopropylmethyl) {3-(ethylsulfonyl)-2-[3-methyl-6-(trifluoromethyl)-3H-imidazo[4,5-b]pyridin-2-yl]imidazo[1,2-a]pyridin-7-yl}carbamothioate] returned a chromatographic logP in data set [1] of 3.76. Besides, the pest or weed control at 4 ppm in data set [5] worked out at 100%. Besides, the pest or weed control at 100 g/ha in data set [6] (in Zea mays) and in data set [8] (in Brassica rapa) was 100% throughout.
Consider `CCS(=O)(=O)c1c(-c2nc3cc(C(F)(F)F)cnc3n2C)nc2cc(NC(=O)OC3(C)CC3)ccn12` [Example I-08, 1-Methylcyclopropyl-{3-(ethylsulfonyl)-2-[3-methyl-6-(trifluoromethyl)-3H-imidazo[4,5-b]pyridin-2-yl]imidazo[1,2-a]pyridin-7-yl}carbamate], for which the pest or weed control at 100 ppm in data set [3] and in data set [7] was 100% in each case. Besides, the chromatographic logP in data set [1] came to 3.14. Also, in data set [5], the pest or weed control at 4 ppm came out at 100%. Further, the pest or weed control at 100 g/ha in data set [6] (in Zea mays) and in data set [8] (in Brassica rapa) was 100% in each case.
With `CCS(=O)(=O)c1c(-c2nc3cc(C(F)(F)F)cnc3n2C)nc2cc(C(=O)NNC3CC3)ccn12` [Example I-10, N′-Cyclopropyl-3-(ethylsulfonyl)-2-[3-methyl-6-(trifluoromethyl)-3H-imidazo[4,5-b]pyridin-2-yl]imidazo[1,2-a]pyridine-7-carbohydrazide], the pest or weed control at 100 g/ha in data set [4] (setting [11]) stood at 90%. Moreover, the chromatographic logP in data set [1] (setting [9]) was 2.41. Further, in data set [5] (4 ppm, after 5 days), the pest or weed control at 4 ppm stood at 100%.
Turning to `CCS(=O)(=O)c1c(-c2nc3cc(C(F)(F)F)cnc3n2C)nc2cc(/C=C/C3CC3)ccn12` [Example I-14], the pest or weed control at 100 ppm in data set [3] (setting [10]) worked out at 98%. For the same compound, the pest or weed control at 100 g/ha was 90% in data set [4] (setting [11]), 100% in data set [6] (setting [13]) and 100% in data set [8] (setting [12]). Moreover, the pest or weed control at 4 ppm in data set [5] (4 ppm, after 5 days) was determined as 100%.
With `CCS(=O)(=O)c1c(-c2nc3cc(S(=O)(=O)C(F)(F)F)cnc3n2C)nc2cc(S(=O)(=O)C3CC3)ccn12` [Example I-15], the pest or weed control at 100 g/ha came to 90% in data set [4] (setting [11]), 100% in data set [6] (setting [13]) and 100% in data set [8] (setting [12]).
With `C=CCOC(=O)Nc1ccn2c(S(=O)(=O)CC)c(-c3nc4cc(C(F)(F)F)cnc4n3C)nc2c1` [Example I-17], in data set [3] (setting [10]), the pest or weed control at 100 ppm was 100%. The pest or weed control at 100 g/ha in data set [6] (in Zea mays) and in data set [8] (in Brassica rapa) was 100% throughout.
Consider `CCS(=O)(=O)c1c(-c2nc3cc(C(F)(F)F)cnc3n2C)nc2cc(NC3=CC(=O)OC3)ccn12` [Example I-19], for which the pest or weed control at 100 g/ha in data set [8] (setting [12]) was found to be 100%.
For `CCS(=O)(=O)c1c(-c2nc3cc(C(F)(F)F)ncc3n2C)nc2cc(S(=O)(=O)NC3CC3)ccn12` [Example I-23], the pest or weed control at 100 g/ha in data set [4] (setting [11]) was 90%.
Consider `CCS(=O)(=O)c1c(-c2nc3cc(C(F)(F)F)nnc3n2C)nc2cc(NS(=O)(=O)C3CC3)ccn12` [Example I-26], for which, in data set [4] (setting [11]), the pest or weed control at 100 g/ha was found to be 100%.
Turning to `CCS(=O)(=O)c1c(-c2nc3cc(OC(F)(F)F)cnc3n2C)nc2cc(C3(C#N)CC3)ccn12` [Example I-29], the pest or weed control at 100 g/ha in data set [4] (setting [11]) is 90%; in data set [6] (setting [13]), 100%; in data set [8] (setting [12]) it was 100%.
On to `CCS(=O)(=O)c1c(-c2nc3cc(C(F)(F)F)cnc3n2C)nc2cc(NC(C)=O)ccn12` [N-{3-(Ethylsulfonyl)-2-[3-methyl-6-(trifluoromethyl)-3H-imidazo[4,5-b]pyridin-2-yl]imidazo[1,2-a]pyridin-7-yl}acetamide], for which, in data set [1] (setting [9]), the chromatographic logP came out at 2.28.
Same read-out and setting: to `CCS(=O)(=O)c1c(-c2nc3cc(C(F)(F)F)cnc3n2C)nc2cc(CC#N)ccn12` [{3-(Ethylsulfonyl)-2-[3-methyl-6-(trifluoromethyl)-3H-imidazo[4,5-b]pyridin-2-yl]imidazo[1,2-a]pyridin-7-yl}acetonitrile] belongs 2.54.
